Converted amounts (≈) assume the structure as drawn.

One assay concerns Staphylococcus aureus (Isolate ID ATCC 29213). Description: Bacterial assay: MIC by broth microdilution or agar dilution (CLSI), S. aureus ATCC 29213. The format is cell-based. The note with it: S. aureus (ATCC29213). A digest of the protocol:
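MICs by CLSI broth microdilution or agar dilution against S. aureus ATCC 29213 and its FtsZ-G196A mutant. Values reported as ranges: A ≤0.25 μg/mL, B >0.25–1.0, C >1.0–16, D >16 μg/mL.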
For the compound `NC(=O)c1c(F)ccc(OC(CC(O)CO)c2nc(-c3ccc(C(F)(F)F)cc3)c(Br)o2)c1F` (centres unmarked) [Compound 156, 3-(1-(5-bromo-4-(4-(trifluoromethyl)phenyl)oxazol-2-yl)-3,4-dihydroxybutoxy)-2,6-difluorobenzamide], the “S. aureus MIC (μg/mL) Activity Range” value is on record as “C (activity>1.0 μg/mL-16 μg/mL)”.
The same measure, in the same setting: under `NC(=O)c1c(F)ccc(OC(CC(O)CO)c2nc(-c3ccc(C(F)(F)F)cc3)c(Br)o2)c1F` (centres unmarked) [Compound 157, 3-(1-(5-bromo-4-(4-(trifluoromethyl)phenyl)oxazol-2-yl)-3,4-dihydroxybutoxy)-2,6-difluorobenzamide] stands “B (activity>0.25 μg/mL-1.0 μg/mL)”; under `NC(=O)c1c(F)ccc(OC(COC(=O)NCc2ccccn2)c2nc(-c3ccc(C(F)(F)F)cc3)c(Br)o2)c1F` (centres unmarked) [Compound 165, 2-(5-bromo-4-(4-(trifluoromethyl)phenyl)oazol-2-yl)-2-(3-carbamoyl-2,4-difluorophenoxy)ethyl (pyridin-2-ylmethyl)carbamate], “B (activity>0.25 μg/mL-1.0 μg/mL)”.

The same assay, now with this note: Staphylococcus aureus, ATCC29213, read-out: S. aureus MIC (μg/mL) Activity Range, S. aureus (ATCC29213).
Turning to `CC(=O)OCC(Oc1cccc(C(N)=O)c1F)c1nc(-c2ccc(C(F)(F)F)cc2)c(Br)o1` (centres unmarked) [Compound 158, 2-(5-bromo-4-(4-(trifluoromethyl)phenyl)oxazol-2-yl)-2-(3-carbamoyl-2-fluorophenoxy)ethyl acetate], the MIC was less than 0.25 µg/mL.
The same measure, in the same setting: with `NC(=O)c1cccc(OC(CO)c2nc(-c3ccc(C(F)(F)F)cc3)c(Br)o2)c1F` (centres unmarked) [Compound 159, 3-(1-(5-bromo-4-(4-(trifluoromethyl)phenyl)oxazol-2-yl)-2-hydroxyethoxy)-2-fluorobenzamide] the figure was less than 0.25 µg/mL; with `NC(=O)c1c(F)ccc(OC(COC(=O)N2CCOCC2)c2nc(-c3ccc(C(F)(F)F)cc3)c(Br)o2)c1F` (centres unmarked) [Compound 160, 2-(5-bromo-4-(4-(trifluoromethyl)phenyl)oxazol-2-yl)-2-(3-carbamoyl-2,4-difluorophenoxy)ethyl morpholine-4-carboxylate], less than 0.25 µg/mL; with `NC(=O)c1c(F)ccc(OC(COC(=O)NCCN2CCCC2)c2nc(-c3ccc(C(F)(F)F)cc3)c(Br)o2)c1F` (centres unmarked) [Compound 161, 2-(5-bromo-4-(4-(trifluoromethyl)phenyl)oxazol-2-yl)-2-(3-carbamoyl-2,4-difluorophenoxy)ethyl (2-(pyrrolidin-1-yl)ethyl)carbamate], 1 to 16 µg/mL (≈ 1.54 to 24.7 µM).
Turning to `NC(=O)c1c(F)ccc(OC(COC(=O)NCCc2c[nH]cn2)c2nc(-c3ccc(C(F)(F)F)cc3)c(Br)o2)c1F` (centres unmarked) [Compound 162, 2-(5-bromo-4-(4-(trifluoromethyl)phenyl)oxazol-2-yl)-2-(3-carbamoyl-2,4-difluorophenoxy)ethyl (2-(1H-imidazol-4-yl)ethyl)carbamate], the MIC fell in the range of 1 to 16 µg/mL (≈ 1.55 to 24.8 µM).
Still for that read-out and setting: under `NC(=O)c1c(F)ccc(OC(COC(=O)NCCO)c2nc(-c3ccc(C(F)(F)F)cc3)c(Br)o2)c1F` (centres unmarked) [Compound 163, 2-(5-bromo-4-(4-(trifluoromethyl)phenyl)oxazol-2-yl)-2-(3-carbamoyl-2,4-difluorophenoxy)ethyl (2-hydroxyethyl)carbamate] stands 0.25 to 1 µg/mL (≈ 0.421 to 1.68 µM); under `COCCNC(=O)OCC(Oc1ccc(F)c(C(N)=O)c1F)c1nc(-c2ccc(C(F)(F)F)cc2)c(Br)o1` (centres unmarked) [Compound 164, 2-(5-bromo-4-(4-(trifluoromethyl)phenyl)oxazol-2-yl)-2-(3-carbamoyl-2,4-difluorophenoxy)ethyl (2-methoxyethyl)carbamate], 0.25 to 1 µg/mL (≈ 0.411 to 1.64 µM); under `NC(=O)c1c(F)ccc(OC(COC(=O)NCc2cccnc2)c2nc(-c3ccc(C(F)(F)F)cc3)c(Br)o2)c1F` (centres unmarked) [Compound 166, 2-(5-bromo-4-(4-(trifluoromethyl)phenyl)oxazol-2-yl)-2-(3-carbamoyl-2,4-difluorophenoxy)ethyl (pyridin-3-ylmethyl)carbamate], less than 0.25 µg/mL.
In the case of `NC(=O)c1c(F)ccc(OC(COC(=O)NCc2ccncc2)c2nc(-c3ccc(C(F)(F)F)cc3)c(Br)o2)c1F` (centres unmarked) [Compound 167, 2-(5-bromo-4-(4-(trifluoromethyl)phenyl)oxazol-2-yl)-2-(3-carbamoyl-2,4-difluorophenoxy)ethyl (pyridin-4-ylmethyl)carbamate], the MIC is less than 0.25 µg/mL.
Still for that read-out and setting: under `NC(=O)c1c(F)ccc(OC(COCCN2CCOCC2)c2nc(-c3ccc(C(F)(F)F)cc3)c(Br)o2)c1F` (centres unmarked) [Compound 168, 3-(1-(5-bromo-4-(4-(trifluoromethyl)phenyl)oxazol-2-yl)-2-(2-morpholinoethoxy)ethoxy)-2,6-difluorobenzamide] stands 1 to 16 µg/mL (≈ 1.61 to 25.8 µM); under `CS(=O)(=O)N1CCN(C(=O)OCC(Oc2ccc(F)c(C(N)=O)c2F)c2nc(-c3ccc(C(F)(F)F)cc3)c(Br)o2)C1=O` (centres unmarked) [Compound 169, 2-(5-bromo-4-(4-(trifluoromethyl)phenyl)oxazol-2-yl)-2-(3-carbamoyl-2,4-difluorophenoxy)ethyl 3-(methylsulfonyl)-2-oxoimidazolidine-1-carboxylate], 1 to 16 µg/mL (≈ 1.43 to 22.9 µM); under `NC(=O)c1c(F)ccc(OC(COC(=O)Nc2cccnc2)c2nc(-c3ccc(C(F)(F)F)cc3)c(Br)o2)c1F` (centres unmarked) [Compound 170, 2-(5-bromo-4-(4-(trifluoromethyl)phenyl)oxazol-2-yl)-2-(3-carbamoyl-2,4-difluorophenoxy)ethyl pyridin-3-ylcarbamate], 0.25 to 1 µg/mL (≈ 0.399 to 1.59 µM).
For the compound `Cc1noc(CCNC(=O)OCC(Oc2ccc(F)c(C(N)=O)c2F)c2nc(-c3ccc(C(F)(F)F)cc3)c(Br)o2)n1` (centres unmarked) [Compound 171, 2-(5-bromo-4-(4-(trifluoromethyl)phenyl)oxazol-2-yl)-2-(3-carbamoyl-2,4-difluorophenoxy)ethyl (2-(3-methyl-1,2,4-oxadiazol-5-yl)ethyl)carbamate], the MIC lay within 0.25 to 1 µg/mL (≈ 0.379 to 1.51 µM).
As for `Cc1nnc(CNC(=O)OCC(Oc2ccc(F)c(C(N)=O)c2F)c2nc(-c3ccc(C(F)(F)F)cc3)c(Br)o2)o1` (centres unmarked) [Compound 172, 2-(5-bromo-4-(4-(trifluoromethyl)phenyl)oxazol-2-yl)-2-(3-carbamoyl-2,4-difluorophenoxy)ethyl ((5-methyl-1,3,4-oxadiazol-2-yl)methyl)carbamate], the MIC was 0.25 to 1 µg/mL (≈ 0.387 to 1.55 µM).
Turning to `NC(=O)c1c(F)ccc(OC(COC(=O)NCc2cccc[n+]2[O-])c2nc(-c3ccc(C(F)(F)F)cc3)c(Br)o2)c1F` (centres unmarked) [Compound 173, 2-((((2-(5-bromo-4-(4-(trifluoromethyl)phenyl)oxazol-2-yl)-2-(3-carbamoyl-2,4-difluorophenoxy)ethoxy)carbonyl)amino)methyl)pyridine 1-oxide], the MIC is 0.25 to 1 µg/mL (≈ 0.38 to 1.52 µM).
Take `NC(=O)c1c(F)ccc(OC(COC(=O)NCc2ccc[n+]([O-])c2)c2nc(-c3ccc(C(F)(F)F)cc3)c(Br)o2)c1F` (centres unmarked) [Compound 174, 3-((((2-(5-bromo-4-(4-(trifluoromethyl)phenyl)oxazol-2-yl)-2-(3-carbamoyl-2,4-difluorophenoxy)ethoxy)carbonyl)amino)methyl)pyridine 1-oxide]: the MIC was greater than 16 µg/mL.
`NC(=O)c1c(F)ccc(OC(COC(=O)NCc2cc[n+]([O-])cc2)c2nc(-c3ccc(C(F)(F)F)cc3)c(Br)o2)c1F` (centres unmarked) [Compound 175, 4-((((2-(5-bromo-4-(4-(trifluoromethyl)phenyl)oxazol-2-yl)-2-(3-carbamoyl-2,4-difluorophenoxy)ethoxy)carbonyl)amino)methyl)pyridine 1-oxide]: the MIC fell in the range of 1 to 16 µg/mL (≈ 1.52 to 24.3 µM).
